{"source": "patent US20180028473A1", "about": "“NUTRIENTS SOLUTIONS” (Mitochondrial Substrate Invention Ltd., priority 2014, published 2018)", "key": {"[1]": {"conditions": "in vivo; cited from earlier work"}, "[2]": {"tested_on": "Cognitively healthy young adult male Wistar rats", "assay": "Passive avoidance test, scopolamine given 7 days after end of supplementation", "assay_type": "in vivo, rat", "description": "Cognitively healthy young adult male Wistar rats weighing 260-280 g were randomly ascribed to groups and supplemented daily with aqueous solution of 5 mg/kg of compound of formula (I) in water of the invention for seven consecutive days. Then, after the break in the supplementation for next seven days, scopolamine 1 mg/kg i.p. or vehicle was administered (at day 14) 30 min before the acquisition trial in the passive avoidance test (“Compound (I)+Scopolamine” group). In “Vehicle+Vehicle” group, rats received vehicle for seven consecutive days and then vehicle 30 min before the acquisition trial in the passive avoidance test at 14th day. In “Vehicle+Scopolamine” group, rats received vehicle for seven consecutive days and then scopolamine 1 mg/kg i.p. 30 min before the acquisition trial in the passive avoidance test at 14th day. […] Passive avoidance test requires the rats to behave contrary to their innate tendencies for preference of dark areas and avoidance of bright ones. The apparatus used in this test is composed by a dark compartment and a bright compartment. The latency to enter the dark chamber was measured using 300 s maximum trial duration. In the acquisition trial, the animal received a 0.4 mA electric shock for 3 s when entering the dark chamber. Retention trial was performed 24 h after the acquisition trial. […]"}}}
{"smiles": "C[N+](C)(C)CCO", "note": "[compound of formula (I), choline succinate (2:1)]", "values": [{"measurement": "elimination half-life", "setting": "[1]", "result": "less than 1.2 h"}, {"measurement": "Relative risk of disturbance of cognitive function", "setting": "[2]; as compared to Vehicle+Scopolamine group", "result": 0.51}, {"measurement": "Rate of disturbance of cognitive function (latency <207 s)", "setting": "[2]; retention trial, scopolamine 1 mg/kg i.p.", "result": 0.36}]}
